Laboratory results from patent publication US20250099448A1, “HETEROCYCLIC COMPOUNDS” (Hoffmann-La Roche Inc., priority 2022, published 2025).

target: T1, MAGL protein (Homo sapiens, UniProt Q99685); assay: 2-AG assay: MAGL inhibitory activity by hydrolysis of 2-arachidonoylglycerol to arachidonic acid, followed by mass spectrometry; format: biochemical; conditions: 8 μM 2-arachidonoylglycerol, 15 min preincubation, 30 min reaction at RT, RapidFire MS readout
T1 sequence (Q99685 1-303): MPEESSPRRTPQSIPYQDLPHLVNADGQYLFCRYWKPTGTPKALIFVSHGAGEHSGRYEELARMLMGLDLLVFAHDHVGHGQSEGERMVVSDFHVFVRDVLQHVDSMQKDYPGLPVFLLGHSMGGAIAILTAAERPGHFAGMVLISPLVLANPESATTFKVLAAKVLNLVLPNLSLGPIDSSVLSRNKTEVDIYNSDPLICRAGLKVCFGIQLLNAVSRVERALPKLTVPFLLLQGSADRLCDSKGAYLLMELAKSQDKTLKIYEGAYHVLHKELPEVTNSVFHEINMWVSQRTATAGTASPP
Method: Compounds of formula (I) were profiled for MAGL inhibitory activity by determining the enzymatic activity by following the hydrolysis of the natural substrate 2-arachidonoylglycerol (2-AG) resulting in arachidonic acid, which can be followed by mass spectrometry. This assay is hereinafter abbreviated “2-AG assay”. The 2-AG assay was carried out in 384 well polypropylene assay plates. Compound dilutions were made in 100% DMSO in a polypropylene plate in 3-fold dilution steps to give a final concentration range in the assay from 12.5 μM to […]. Compound dilutions were added to MAGL protein in assay buffer (50 mM TRIS, 1 mM EDTA, 0.01% (v/v) Tween-20, 2.5% (v/v) DMSO). After shaking, the plate was incubated for 15 min at RT. To start the reaction, 2-arachidonoylglycerol in assay buffer was added. The final concentrations in the assay was […] for MAGL protein and 8 μM 2-arachidonoylglyerol. After shaking and 30 min incubation at RT, the reaction was quenched by the addition of two assay volumes of acetonitrile containing 4 μM of d8-arachidonic acid. The amount of arachidonic acid formed was traced by an online SPE system (Agilent Rapidfire) coupled to a triple quadrupole mass spectrometer. A C18 SPE cartridge (Agilent G9205A) was used in an acetonitrile/water liquid setup. The mass spectrometer was operated in negative electrospray mode following the mass transitions 303.1→259.1 for arachidonic acid and 311.1→267.0 for d8-arachidonic acid. The activity of the compounds was calculated based on the ratio of intensities [arachidonic acid/d8-arachidonic acid].

IC50 [nM]	SMILES
295	CC(C)(C)Cc1nnc(C23CC(C4CN(C(=O)N5CC6(CC(c7nc(C8CC(F)(F)C8)n[nH]7)C6)C5)C4)(C2)C3)s1 [compound 583]
8.51	O=C(N1CC2(CC(NCC3(C(F)(F)F)CC3)C2)C1)N1CC2(CC(c3nnc(C4CC4)[nH]3)C2)C1 [compound 221]
9.72	Cc1cn(-c2ccc(C3CN(C(=O)N4CC5(CC(c6nnc(C7CC7)[nH]6)C5)C4)C3)cc2)cn1 [Example 806, [6-(5-cyclopropyl-4H-1,2,4-triazol-3-yl)-2-azaspiro[3.3]heptan-2-yl]-[3-[4-(4-methylimidazol-1-yl)phenyl]azetidin-1-yl]methanone]
0.16	COC(=O)c1ccccc1-c1ccc(C2CN(C(=O)N3CC4(CC(c5nnc(C6CC6)[nH]5)C4)C3)C2)cc1 [compound 339]
4.37	O=C(N1CC(C23CC(NCC4(C(F)(F)F)CC4)(C2)C3)C1)N1CC2(CC(c3nc(C4(O)CC4)n[nH]3)C2)C1 [compound 825]
1.82	N#Cc1ccc(CN2CC3(C2)CN(C(=O)N2CC4(CC(c5nc(C6CC6)n[nH]5)C4)C2)C3)c(C(F)(F)F)c1 [compound 882]
0.15	O=C(N1CC2(CC(Cc3cc(C(F)(F)F)nn3CC(F)(F)F)C2)C1)N1CC2(CC(c3nc(C4CC4)n[nH]3)C2)C1 [compound 679]
0.24	Cc1cc(C(F)(F)F)nn1CC1CC2(C1)CN(C(=O)N1CC3(CC(c4nc(C5CC5)n[nH]4)C3)C1)C2 [compound 445]
192	O=C(N1CCC(C23CC(c4nnc(C5(C(F)(F)F)CC5)o4)(C2)C3)CC1)N1CC2(CC(c3nc(C4CC4)n[nH]3)C2)C1 [compound 418]
1.96	O=C(N1CC(c2ccc(N3CC(C(F)(F)F)C3)cc2)C1)N1CC2(CC(c3nnc(C4(O)CC4)[nH]3)C2)C1 [compound 262]
3580	O=C(N1CC2(CC(c3nnc(C4CC4)[nH]3)C2)C1)N1CC2(C1)CN(C(=O)C(F)(F)F)C2 [Example 217, 1-[2-[6-(5-cyclopropyl-4H-1,2,4-triazol-3-yl)-2-azaspiro[3.3]heptane-2-carbonyl]-2,6-diazaspiro[3.3]heptan-6-yl]-2,2,2-trifluoro-ethanone]
0.06	NC1(c2nnc(C3CC4(C3)CN(C(=O)N3CC5(CC(Cc6ccc(C(F)(F)F)cc6F)C5)C3)C4)[nH]2)CC1 [Example 852, [6-[5-(1-aminocyclopropyl)-4H-1,2,4-triazol-3-yl]-2-azaspiro[3.3]heptan-2-yl]-[6-[[2-fluoro-4-(trifluoromethyl)phenyl]methyl]-2-azaspiro[3.3]heptan-2-yl]methanone]
0.47	O=C(N1CC(C23CC(c4cc(C5CC5)n[nH]4)(C2)C3)C1)N1CC2(CC(c3nc(C4CC4)n[nH]3)C2)C1 [compound 514]
22.3	O=C(N1CC2(CC(c3cncc(F)c3)C2)C1)N1CC2(CC(c3nnc(C4CC4)[nH]3)C2)C1 [compound 497]
0.86	N#Cc1ccc(OC2CC3(C2)CN(C(=O)N2CC4(CC(c5nc(C6CC6)n[nH]5)C4)C2)C3)cc1C(F)(F)F [compound 605]
55.9	O=C(N1CC2(CC(c3nc(C4CC4)n[nH]3)C2)C1)N1CC2(CN(Cc3nccn3CC(F)(F)F)C2)C1 [compound 698]
0.17	CC(C)(Oc1ccc(C2CN(C(=O)N3CC4(CC(c5nnc(C6(O)CC6)[nH]5)C4)C3)C2)cc1)C(F)(F)F [compound 368]
0.53	O=C(N1CC2(CC(Cn3cc(C(F)(F)F)cn3)C2)C1)N1CC2(CC(c3nc(C4(F)CC4)n[nH]3)C2)C1 [compound 523]
10.7	O=C(N1CC(c2ccc(NC3(C(F)(F)F)CC3)nc2)C1)N1CC2(CC(c3nnc(C4CCC4)[nH]3)C2)C1 [compound 273]
64.5	O=C(N1CC2(CC(c3nc(C4CC4)n[nH]3)C2)C1)N1CC2(CN(Cc3nnc(C(F)(F)F)s3)C2)C1 [compound 485]
0.03	CC(C)Oc1nc(CC2CC3(C2)CN(C(=O)N2CC4(CC(c5nc(C6CC6)n[nH]5)C4)C2)C3)ccc1C(F)(F)F [compound 965]
0.65	N#Cc1cc(C(F)(F)F)ncc1C[C@@H]1CCC2(C1)CN(C(=O)N1CC3(CC(c4nnc(C5CC5)[nH]4)C3)C1)C2 [compound 669]
1.51	CS(=O)(=O)c1cccc(CC2CC3(C2)CN(C(=O)N2CC4(CC(c5nnc(C6(O)CC6)[nH]5)C4)C2)C3)c1 [compound 16]
2.29	O=C(N1CC(c2ccc(N3CCC(O)(C(F)(F)F)C3)nc2)C1)N1CC2(CC(c3nnc(C4CC4)[nH]3)C2)C1 (stereo not drawn) [compound 269]

IC50 [nM]	SMILES
1.58	O=C(N1CC(c2ccc(N3CC4(CCCC4)C3)nc2)C1)N1CC2(CC(c3nc(C4(O)CC4)n[nH]3)C2)C1 [compound 937]
7.18	N#Cc1cc(C2CC2)ccc1OC1CN(C(=O)N2CC3(CC(c4nnc(C5(O)CC5)[nH]4)C3)C2)C1 [compound 317]
842	O=C(N1CC2(CCN(S(=O)(=O)C34CC(C(F)(F)F)(C3)C4)CC2)C1)N1CC2(CC(c3nnc(C4CCC4)[nH]3)C2)C1 [compound 239]
2.03	O=C(N1CC2(CC(Cc3cn4cc(C(F)(F)F)nc4cn3)C2)C1)N1CC2(CC(c3nc(C4CC4)n[nH]3)C2)C1 [compound 991]
1.04	Cc1nc(C(F)(F)F)c(CN2CC3(C2)CN(C(=O)N2CC4(CC(c5nc(C6CC6)n[nH]5)C4)C2)C3)s1 [compound 504]
2	Cc1cc(C2CC2)nn1-c1ccc(C2CN(C(=O)N3CC4(CC(c5nc(C6(O)CC6)n[nH]5)C4)C3)C2)cc1 [compound 821]
8.64	O=C(N1CC2(CC(c3nc(C4CC4)n[nH]3)C2)C1)N1CC2(CC(n3cnc(C4CC4)n3)C2)C1 [compound 746]
6.08	O=C(N1CC2(CC(c3nnc(C4CC4)[nH]3)C2)C1)N1CC2(CN(Cc3cc(F)cc(F)c3)C2)C1 [compound 159]
0.31	O=C(N1CC2(CCC(Cc3ccc(C(F)(F)F)nc3)CC2)C1)N1CC2(CC(c3nnc(C4CC4)[nH]3)C2)C1 [compound 140]
0.07	N#Cc1cc(CC2CC3(C2)CN(C(=O)N2CC4(CC(c5nc(C6(F)CC6)n[nH]5)C4)C2)C3)cc(C(F)(F)F)c1 [compound 464]
17.1	O=C(N1CC2(CCN(S(=O)(=O)C34CC(C(F)(F)F)(C3)C4)CC2)C1)N1CC2(CC(c3nnc(C4CC4)[nH]3)C2)C1 [compound 237]
0.25	N#Cc1cc(CC2CC3(C2)CN(C(=O)N2CC4(CC(c5nc(C6(O)CC6)n[nH]5)C4)C2)C3)cc(C(F)(F)F)c1 [compound 749]
6.17	O=C(N1CC(C23CC(C(F)(F)c4ccc(C(F)(F)F)cc4)(C2)C3)C1)N1CC2(CC(c3nc(C4(O)CC4)n[nH]3)C2)C1 [compound 974]
3.59	O=C(N1CC2(CCC(Nc3cnc(C(F)(F)F)cn3)CC2)C1)N1CC2(CC(c3nnc(C4CC4)[nH]3)C2)C1 [compound 351]
79.2	CS(=O)(=O)c1ccc(COC2CCN(C(=O)N3CC4(CC(c5n[nH]c(C6CC6)n5)C4)C3)CC2)c(Cl)c1 [Example 925, [4-(2-chloro-4-mesyl-benzyl)oxypiperidino]-[6-(5-cyclopropyl-1H-1,2,4-triazol-3-yl)-2-azaspiro[3.3]heptan-2-yl]methanone]
0.01	O=C(N1CC2(CC(Cc3ccc(C(F)(F)F)cc3F)C2)C1)N1CC2(CC(c3nnc(C4CC4)[nH]3)C2)C1 [compound 37]
21.3	O=C(N1CC2(CC(OCC3(C(F)(F)F)CC3)C2)C1)N1CC2(CC(c3nnc(C4(O)CC4)[nH]3)C2)C1 [compound 69]
3.67	O=C(N1CC(c2ccc(NC3(C(F)(F)F)CC3)nc2)C1)N1CC2(CC(c3nnc(C4(O)CC4)[nH]3)C2)C1 [compound 272]
0.02	O=C(N1CC2(CC(c3nc(C4CC4)n[nH]3)C2)C1)N1CC2(CC[C@@H](Cc3cccc(S(=O)(=O)C(F)(F)F)c3)C2)C1 [compound 543]
3.62	O=C(N1CC2(CC(Cn3cc(C(F)(F)F)ccc3=O)C2)C1)N1CC2(CC(c3nc(C4(O)CC4)n[nH]3)C2)C1 [compound 621]
0.18	O=C(N1CC(c2ccc([C@H]3C[C@H](C(F)F)C3)cc2)C1)N1CC2(CC(c3nnc(C4CC4)[nH]3)C2)C1 (single isomer, unassigned) [Example 304, Trans-[6-(5-Cyclopropyl-4H-1,2,4-triazol-3-yl)-2-azaspiro[3.3]heptan-2-yl]-[3-[4-[3-(difluoromethyl)cyclobutyl]phenyl]azetidin-1-yl]methanone]
0.27	CS(=O)(=O)c1ccc(CC2CCC3(C2)CN(C(=O)N2CC4(CC(c5nnc(C6CC6)[nH]5)C4)C2)C3)cc1C(F)(F)F (stereo not drawn) [compound 153]
0.08	O=C(N1CC2(CC(Cc3ccc(C(F)(F)F)cc3F)C2)C1)N1CC2(CC(c3nc(C4COC4)n[nH]3)C2)C1 [compound 768]
13.6	Cn1nc(CC2CC3(C2)CN(C(=O)N2CC4(CC(c5nc(C6COC6)n[nH]5)C4)C2)C3)cc1C(F)(F)F [compound 744]
